Experimental data taken from US8829027B2, “Urea derivatives of substituted nortropanes, medicaments containing such compounds and their use” (Boehringer Ingelheim International GmbH, priority 2008, dated 2014).

Molecular target: T1, 11β-HSD1 (Homo sapiens, UniProt P28845)
T1 construct: detecting cortisol generated from cortisterone by human liver microsomes; from tissue; host or cells: human liver microsomes
Assay: In vitro inhibition of 11β-HSD1, HTRF detection of cortisol generated from cortisone by human liver microsomes
Format: biochemical
Conditions: compound concentration 1 μM, 100% indicates no inhibition, zero or below zero indicates complete inhibition
Protocol: Briefly, compounds are incubated for 1 hour at 37° C. in Tris buffer (20 mM tris, 5 mM EDTA, pH 6.0) containing NADPH (200 μM) and cortisone (80 nM). Cortisol generated in the reaction is then detected with a competitive immunoassay, involving two HTRF conjugates: cortisol linked to XL665 and anti-cortisol antibody labeled with Europium cryptate. The incubation period for detection reaction is typically 2 hours. The amount of cortisol is determined by reading the time-resolved fluorescence of the wells (Ex 320/75 nm; Em 615/8.5 nm and 665/7.5 nm). The ratio of the two emission signals is then calculated (Em665*10000/Em615). […] Each assay also contains a calibration curve with cortisol to transform the fluorescent data into cortisol concentrations. Percent inhibition (% CTL) of each compound is determined relative to the carbenoxolone signal and IC50 curves are generated.
The % CTL values of some example compounds at a concentration of 1 μM are provided in the following Table 2 wherein 100% indicates no inhibition and a value of zero or below zero indicates complete inhibition. The measurement of % CTL is described hereinbefore.

T1 sequence (P28845 whole entry): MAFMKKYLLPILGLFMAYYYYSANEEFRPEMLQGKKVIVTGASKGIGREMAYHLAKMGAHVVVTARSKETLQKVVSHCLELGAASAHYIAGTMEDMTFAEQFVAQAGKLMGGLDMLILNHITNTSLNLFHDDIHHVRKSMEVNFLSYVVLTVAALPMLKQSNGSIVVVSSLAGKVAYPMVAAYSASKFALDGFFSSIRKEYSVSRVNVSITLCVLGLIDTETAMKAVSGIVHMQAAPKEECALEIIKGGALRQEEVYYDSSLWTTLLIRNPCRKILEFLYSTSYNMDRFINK

| SMILES | 11β-HSD1 remaining activity (% of control) [% CTL] |
| --- | --- |
| O=C(O)C1CCN(C(=O)N2[C@@H]3CC[C@H]2C[C@@H](c2ccc(F)cc2)C3)CC1 [Example 11, endo-1-[3-(4-Fluoro-phenyl)-8-aza-bicyclo[3.2.1]octane-8-carbonyl]-piperidine-4-carboxylic acid] | 4 |
| O=C(N1CCCC2(CCCNC2=O)C1)N1[C@@H]2CC[C@H]1C[C@@H](c1ccc(F)cc1)C2 (stereo partly drawn) [Example 18, endo-8-[3-(4-Fluoro-phenyl)-8-aza-bicyclo[3.2.1]octane-8-carbonyl]-2,8-diaza-spiro[5.5]undecan-1-one] | 62 |
| O=C(N1CCCC1)N1[C@@H]2CC[C@H]1C[C@@H](c1ccc(F)cc1)C2 [Example 2, endo-[3-(4-Fluoro-phenyl)-8-aza-bicyclo[3.2.1]oct-8-yl]-pyrrolidin-1-yl-methanone] | −3 |
| CC(C)(O)C1CCN(C(=O)N2[C@@H]3CC[C@H]2C[C@@H](c2ccc(F)cc2)C3)CC1 [Example 22, endo-[3-(4-Fluoro-phenyl)-8-aza-bicyclo[3.2.1]oct-8-yl]-[4-(1-hydroxy-1-methyl-ethyl)-piperidin-1-yl]-methanone] | −18 |
| O=C(N1C2CCC1CC(O)(C(F)(F)F)C2)N1[C@@H]2CC[C@H]1C[C@@H](c1ccc(F)cc1)C2 (stereo partly drawn) [Example 17, endo-[3-(4-Fluoro-phenyl)-8-aza-bicyclo[3.2.1]oct-8-yl]-(3-hydroxy-3-trifluoromethyl-8-aza-bicyclo[3.2.1]oct-8-yl)-methanone] | −11 |
| O=C(N1CCC(CO)CC1)N1[C@@H]2CC[C@H]1C[C@@H](c1ccc(F)cc1)C2 [Example 21, endo-[3-(4-Fluoro-phenyl)-8-aza-bicyclo[3.2.1]oct-8-yl]-(4-hydroxymethyl-piperidin-1-yl)-methanone] | −20 |
| O=C(N1CCCC(CO)C1)N1[C@@H]2CC[C@H]1C[C@@H](c1ccc(F)cc1)C2 (stereo partly drawn) [Example 20, endo-[3-(4-Fluoro-phenyl)-8-aza-bicyclo[3.2.1]oct-8-yl]-(3-hydroxymethyl-piperidin-1-yl)-methanone] | −17 |
| NC(=O)C1CCN(C(=O)N2[C@@H]3CC[C@H]2C[C@@H](c2ccc(F)cc2)C3)CC1 [Example 9, endo-1-[3-(4-Fluoro-phenyl)-8-aza-bicyclo[3.2.1]octane-8-carbonyl]-piperidine-4-carboxylic acid amide] | −49 |
| O=C(N1CCC(O)(C(F)(F)F)CC1)N1[C@@H]2CC[C@H]1C[C@@H](c1ccc(F)cc1)C2 [Example 14, endo-[3-(4-Fluoro-phenyl)-8-aza-bicyclo[3.2.1]oct-8-yl]-(4-hydroxy-4-trifluoromethyl-piperidin-1-yl)-methanone] | −30 |
| N#CC1CCN(C(=O)N2[C@@H]3CC[C@H]2C[C@@H](c2ccc(F)cc2)C3)CC1 [Example 12, endo-1-[3-(4-Fluoro-phenyl)-8-aza-bicyclo[3.2.1]octane-8-carbonyl]-piperidine-4-carbonitrile] | −27 |
| O=C(N1CCOCC1)N1[C@@H]2CC[C@H]1C[C@@H](c1ccc(F)cc1)C2 [Example 3, endo-[3-(4-Fluoro-phenyl)-8-aza-bicyclo[3.2.1]oct-8-yl]-morpholin-4-yl-methanone] | −29 |
| COC(=O)C1CCN(C(=O)N2[C@@H]3CC[C@H]2C[C@@H](c2ccc(F)cc2)C3)CC1 [Example 15, endo-1-[3-(4-Fluoro-phenyl)-8-aza-bicyclo[3.2.1]octane-8-carbonyl]-piperidine-4-carboxylic acid methyl ester] | 20 |
| CC1(O)CCN(C(=O)N2[C@@H]3CC[C@H]2C[C@@H](c2ccc(F)cc2)C3)CC1 [Example 16, endo-[3-(4-Fluoro-phenyl)-8-aza-bicyclo[3.2.1]oct-8-yl]-(4-hydroxy-4-methyl-piperidin-1-yl)-methanone] | −23 |
| O=C(N1CCc2nc[nH]c2C1)N1[C@@H]2CC[C@H]1C[C@@H](c1ccc(F)cc1)C2 [Example 6, endo-[3-(4-Fluoro-phenyl)-8-aza-bicyclo[3.2.1]oct-8-yl]-(3,4,6,7-tetrahydro-imidazo[4,5-c]pyridin-5-yl)-methanone] | 65 |
| O=C(N1[C@@H]2CC[C@H]1C[C@@H](O)C2)N1[C@@H]2CC[C@H]1C[C@@H](c1ccc(F)cc1)C2 [Example 8, [endo-3-(4-Fluoro-phenyl)-8-aza-bicyclo[3.2.1]oct-8-yl]-(endo-3-hydroxy-8-aza-bicyclo[3.2.1]oct-8-yl)-methanone] | −59 |
| COC1CCN(C(=O)N2[C@@H]3CC[C@H]2C[C@@H](c2ccc(F)cc2)C3)CC1 [Example 13, endo-[3-(4-Fluoro-phenyl)-8-aza-bicyclo[3.2.1]oct-8-yl]-(4-methoxy-piperidin-1-yl)-methanone] | −25 |
| O=C(N1CCCCC1)N1[C@@H]2CC[C@H]1C[C@@H](c1ccc(F)cc1)C2 [Example 1, endo-[3-(4-Fluoro-phenyl)-8-aza-bicyclo[3.2.1]oct-8-yl]-piperidin-1-yl-methanone] | −49 |
| O=C(N1CCC(O)CC1)N1[C@@H]2CC[C@H]1C[C@@H](c1ccc(F)cc1)C2 [Example 5, endo-[3-(4-Fluoro-phenyl)-8-aza-bicyclo[3.2.1]oct-8-yl]-(4-hydroxy-piperidin-1-yl)-methanone] | −46 |
| CC(=O)NC1CCN(C(=O)N2[C@@H]3CC[C@H]2C[C@@H](c2ccc(F)cc2)C3)CC1 [Example 4, endo-N-{1-[3-(4-Fluoro-phenyl)-8-aza-bicyclo[3.2.1]octane-8-carbonyl]-piperidin-4-yl}-acetamide] | 46 |
| O=C(N1CCCC2(CCNC2=O)C1)N1[C@@H]2CC[C@H]1C[C@@H](c1ccc(F)cc1)C2 (stereo partly drawn) [Example 19, endo-7-[3-(4-Fluoro-phenyl)-8-aza-bicyclo[3.2.1]octane-8-carbonyl]-2,7-diaza-spiro[4.5]decan-1-one] | 34 |
| O=C(N1CCc2sccc2C1)N1[C@@H]2CC[C@H]1C[C@@H](c1ccc(F)cc1)C2 [Example 7, endo-(6,7-Dihydro-4H-thieno[3,2-c]pyridin-5-yl)-[3-(4-fluoro-phenyl)-8-aza-bicyclo[3.2.1]oct-8-yl]-methanone] | −57 |
